How the values were obtained:
[1] = pharmacokinetic analysis in Calu-6 tumor–bearing mice; assay type: in vivo, mouse; details: 30-mg/kg oral dose
Description: by determining the absorbance at 570 nm of SRB stain dissolved in Tris base (10 mM, pH 10.5) using a spectrophotometer (BMG Labtech).
In vivo pharmacokinetic analyses
All animal experiments were performed in accordance with the Animals (Scientific Procedures) 1986 Act. 8-9 week old mice were purchased from Charles River Laboratories and housed under specific pathogen-free conditions under 12 hour light/dark cycles.
Female CD-1, CD-1 nude, BALB/c nude and C57BL/6 mice were treated with NU5455 (30 or 100 mg/kg prepared in 1% (v/v) acetic acid or NMP:Encapsin (30% aq):PEG4000 (1:6:3 v/v/v) dosed by oral gavage. Blood samples were collected into heparinized tubes at 15, 30, 60, 180 and 360 minutes post-gavage.
Blood samples were centrifuged at 6700 x g for 3 minutes, the plasma removed and stored at -20°C prior to analysis for drug by HPLC with fluorescence detection. Aliquots of plasma (50 µl) were vigorously vortexed with acetonitrile (450 µl) and the precipitate removed by centrifugation at 6700 x g for 5 minutes. […]
Samples (20 µl) were applied to a 10 x 0.46 cm Genesis C18 4 µm column (Grace Vydac) fitted with an in-line filter. […] Analytes were detected by fluorescence at 390 nm following excitation at 242 nm. Plasma concentrations were determined using linear standard curves (0.01 µM – 10 µM, R2 > 0.98) generated by extracting compounds from […]

[2] = test system: orthotopic Calu-6 lung tumors; test: orthotopic Calu-6 lung tumor with thoracic radiation, bioluminescent imaging; assay type: in vivo; details: single dose 30 mg/kg + 10 Gy thoracic radiation
Description: Orthotopic lung xenografts were generated following a published protocol ([54]) with minor modifications. Briefly, CD-1 nude mice (Charles River Laboratories) were anesthetized with 2% isoflurane and placed in the right lateral decubitus position. Luciferase-expressing Calu-6 cells (1 × 10^6) in 50 μL of 50% (vol/vol) Matrigel were injected into the left lateral thorax at the lateral dorsal axillary line, 1.5 cm above the lower rib line. The needle was advanced 5 mm into the thorax. After injection, the mouse was turned to the left lateral decubitus position for 5 minutes. […]
NSCLC subcutaneous xenografts were generated as previously described ( 53). […] Mouse weights and tumor volumes (1/2 x length x width x depth) were measured three times a week.
Targeted radiotherapy in subcutaneous and orthotopic NSCLC xenograft models When subcutaneous xenografts reached 100 mm3, mice were randomized into four groups (n = 7 - 11/group): (i) N-Methyl-2-pyrrolidone (NMP): 30% Encapsin : PEG400 (1:6:3 v/v/v) vehicle p.o. 30 minutes prior to mock radiation. […] The remaining mice were monitored for tumor growth until the sizes of tumo rs reached 400 mm 3 or up to 38 days after initiation of […]
Tumor growth in the remaining mice was monitored by bioluminescent imaging on days 0, 4, 8 and 15 post-treatment. […] Data were analyzed using LivingImage software (PerkinElmer). […]

For `CN(C(=O)CN1CCOCC1)c1ccc2sc3c(-c4cccc5c(=O)cc(N6CC7CCC(C6)O7)oc45)cccc3c2c1` [NU5455], which “period NU5455 concentrations in plasma, lung, tumor, or surrounding skin maintained at approximately 1 μM (0.6 μg/mL or μg/g tissue) or above” value [1] is on record?
Its value is 3 h.

And the tolerability [2]?
Its tolerability is “well tolerated”.

And the “antitumor effect of radiation (time to 4-fold increase in bioluminescent signal)” value ([2]; CD-1 nude mice)?
The value was “enhanced the antitumor effect of the radiation”.
